Test [1] relates to cGAS/STING pathway in THP1 cells. The experiment in a line: THP1 cell-based cGAS/STING pathway activity assay (IRF-3-linked luciferase reporter). Conditions: Homo sapiens, THP-1. The source says: A cellular assay can be used to assess the compounds of the invention for their ability to inhibit the cGAS/STING pathway. Cells that express a luciferase-based reporter that is linked to IRF-3 activation are used to determine response as a function of compound concentration. Such an assay is described in Vincent et al., Nature Communications 2017, 8(1):750, doi: 10.1038/s41467-017-00833-9.
A cellular assay can be used to assess the compounds of the invention for their ability to inhibit the cGAS/STING pathway. Cells that express a luciferase-based reporter that is linked to IRF-3 activation are used to determine response as a function of compound concentration. Such an assay is described in Vincent et al., Nature Communications 2017, 8(1):750, doi: 10.1038/s41467-017-00833-9. Compounds of the invention were assessed using similar assay methods in a THP1 cell assay to generate IC50 values as provided in the following Table 16. In this table, activity level “A” indicates an IC50 value less than 20 μM, “B” indicates an IC50 value between 20 and 100 μM, and “C” indicates an IC50 value above the upper limit of the assay (100 μM), or where an IC50 value could not be generated from the data.
In general terms: A reporter such as luciferase makes a cellular process visible.

Test [2] addresses Human cGAS amino acids 155-522 (Homo sapiens (Human), UniProt Q8N884). The experiment in a line: cGAS biochemical activity assay (ATP remaining, Kinase-Glo Max luminescence). Conditions: human cGAS 155-522, ATP remaining (Kinase-Glo Max); read-out: cGAS IC50.

pIC50: −log10 of the molar value.

For orientation: pIC50 means the negative decadic logarithm of the IC50, by convention in mol/L.

Chain of Human cGAS amino acids 155-522 (Q8N884 157-522): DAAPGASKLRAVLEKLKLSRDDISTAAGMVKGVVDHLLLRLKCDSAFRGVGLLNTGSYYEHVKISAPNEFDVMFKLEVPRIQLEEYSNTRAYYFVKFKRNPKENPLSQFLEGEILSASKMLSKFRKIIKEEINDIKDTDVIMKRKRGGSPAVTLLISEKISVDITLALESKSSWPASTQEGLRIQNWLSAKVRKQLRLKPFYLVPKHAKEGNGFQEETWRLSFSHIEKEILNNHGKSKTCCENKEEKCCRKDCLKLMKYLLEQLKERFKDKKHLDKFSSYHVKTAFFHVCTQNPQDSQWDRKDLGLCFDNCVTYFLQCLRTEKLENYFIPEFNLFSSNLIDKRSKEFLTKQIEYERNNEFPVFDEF

Regarding `COc1ccc(NC(=O)c2c(C)[nH]c3c(-c4ccccc4)c(C(F)(F)F)nn3c2=O)nn1` [Compound A1110, N-(6-methoxypyridazin-3-yl)-5-methyl-7-oxo-3-phenyl-2-(trifluoromethyl)-4,7-dihydropyrazolo[1,5-a]pyrimidine-6-carboxamide], the pIC50 in test [1] is below 4.00; in test [2], above 4.70.

With `Cc1[nH]c2c(-c3ccccc3)c(C(F)(F)F)nn2c(=O)c1-c1nc2c(C)cccc2o1` [Compound C1060, 5-methyl-6-(4-methylbenzo[d]oxazol-2-yl)-3-phenyl-2-(trifluoromethyl)pyrazolo[1,5-a]pyrimidin-7(4H)-one], the pIC50 in test [1] and in test [2] was above 4.70 each time.

Regarding `COC(C)(C)c1nnc(-c2c(C)[nH]c3c(-c4ccccc4)c(C(F)(F)F)nn3c2=O)o1` [Compound D1048, 6-(5-(2-methoxypropan-2-yl)-1,3,4-oxadiazol-2-yl)-5-methyl-3-phenyl-2-(trifluoromethyl)pyrazolo[1,5-a]pyrimidin-7(4H)-one], the pIC50 in test [1] is below 4.00; in test [2], 3.60 to 4.70.

`COc1cccc(CS(=O)(=O)NC(=O)c2c(C)[nH]c3c(-c4ccccc4)c(C(F)(F)F)nn3c2=O)c1` [Compound A1132, N-((3-methoxybenzyl)sulfonyl)-5-methyl-7-oxo-3-phenyl-2-(trifluoromethyl)-4,7-dihydropyrazolo[1,5-a]pyrimidine-6-carboxamide]: the pIC50 in test [1] was 4.00 to 4.70; in test [2], above 4.70.

`COCc1nnc(-c2c(C)[nH]c3c(-c4ccccc4)c(C(F)(F)F)nn3c2=O)o1` [Compound D1019, 6-(5-(methoxymethyl)-1,3,4-oxadiazol-2-yl)-5-methyl-3-phenyl-2-(trifluoromethyl)pyrazolo[1,5-a]pyrimidin-7(4H)-one]: the results for the pIC50 in test [1] and in test [2] were below 4.00 and above 4.70, respectively.

Regarding `COc1ccc2oc(-c3c(C)[nH]c4c(-c5ccccc5)c(C(F)(F)F)nn4c3=O)nc2c1` [Compound C1012, 6-(5-methoxybenzo[d]oxazol-2-yl)-5-methyl-3-phenyl-2-(trifluoromethyl)pyrazolo[1,5-a]pyrimidin-7(4H)-one], the pIC50 is above 4.70 in test [1] and below 3.60 in test [2].

On to `COc1c(C)ccc2oc(-c3c(C)[nH]c4c(-c5ccccc5)c(C(F)(F)F)nn4c3=O)nc12` [Compound C1093, 6-(4-methoxy-5-methylbenzo[d]oxazol-2-yl)-5-methyl-3-phenyl-2-(trifluoromethyl)pyrazolo[1,5-a]pyrimidin-7(4H)-one], for which the pIC50 in test [1] was 4.00 to 4.70; in test [2] it was above 4.70.

As for `COc1cccc2oc(-c3c(C[S+](C)[O-])[nH]c4c(-c5ccccc5)c(C(F)(F)F)nn4c3=O)nc12` (centres unmarked) [Compound C1137, 6-(4-methoxybenzo[d]oxazol-2-yl)-5-((methylsulfinyl)methyl)-3-phenyl-2-(trifluoromethyl)pyrazolo[1,5-a]pyrimidin-7(4H)-one], the results for the pIC50 in test [1] and in test [2] were below 4.00 and above 4.70, respectively.

Turning to `COc1ccccc1NC(=O)c1c(C)[nH]c2c(-c3ccccc3)c(C(F)(F)F)nn2c1=O` [Compound A1031, N-(2-methoxyphenyl)-5-methyl-7-oxo-3-phenyl-2-(trifluoromethyl)-4,7-dihydropyrazolo[1,5-a]pyrimidine-6-carboxamide], the results for the pIC50 in test [1] and in test [2] were below 4.00 and above 4.70, respectively.

For `CNc1cccc2oc(-c3c(C)[nH]c4c(-c5ccccc5)c(C#N)nn4c3=O)nc12` [Compound C1274, 5-methyl-6-(4-(methylamino)benzo[d]oxazol-2-yl)-7-oxo-3-phenyl-4,7-dihydropyrazolo[1,5-a]pyrimidine-2-carbonitrile], the pIC50 is below 4.00 in test [1] and above 4.70 in test [2].

As for `Cc1cc(NC(=O)c2c(C)[nH]c3c(-c4ccccc4)c(C(F)(F)F)nn3c2=O)n(C)n1` [Compound A1073, N-(1,3-dimethyl-1H-pyrazol-5-yl)-5-methyl-7-oxo-3-phenyl-2-(trifluoromethyl)-4,7-dihydropyrazolo[1,5-a]pyrimidine-6-carboxamide], the pIC50 in test [1] was below 4.00; in test [2] it was 3.60 to 4.70.

For the compound `Cc1[nH]c2c(-c3ccccc3)c(C(F)(F)F)nn2c(=O)c1C(=O)Nc1ccccc1S(C)(=O)=O` [Compound A1083, 5-methyl-N-(2-(methylsulfonyl)phenyl)-7-oxo-3-phenyl-2-(trifluoromethyl)-4,7-dihydropyrazolo[1,5-a]pyrimidine-6-carboxamide], the negative logarithm of the IC50 (pIC50) in test [1] is below 4.00; in test [2] it was above 4.70.

Regarding `Cc1[nH]c2c(-c3ccccc3)c(C(F)(F)F)nn2c(=O)c1-c1nc2c(S(C)(=O)=O)cccc2o1` [Compound C1054, 5-methyl-6-(4-(methylsulfonyl)benzo[d]oxazol-2-yl)-3-phenyl-2-(trifluoromethyl)pyrazolo[1,5-a]pyrimidin-7(4H)-one], the negative-log IC50 (pIC50) was below 4.00 in test [1] and 3.60 to 4.70 in test [2].

`Cc1[nH]c2c(-c3ccccc3)c(C(F)(F)F)nn2c(=O)c1-c1nnc(-c2ccnc(O)c2)o1` [Compound D1085, 6-(5-(2-hydroxypyridin-4-yl)-1,3,4-oxadiazol-2-yl)-5-methyl-3-phenyl-2-(trifluoromethyl)pyrazolo[1,5-a]pyrimidin-7(4H)-one]: the pIC50 in test [1] was below 4.00; in test [2] it was above 4.70.

Regarding `Cc1[nH]c2c(-c3ccccc3)c(C(F)(F)F)nn2c(=O)c1-c1nc2ccccc2[nH]1` [Compound C1005, 6-(1H-benzo[d]imidazol-2-yl)-5-methyl-3-phenyl-2-(trifluoromethyl)pyrazolo[1,5-a]pyrimidin-7(4H)-one], the pIC50 was below 4.00 in test [1] and 3.60 to 4.70 in test [2].

With `COc1cc(C(=O)O)cc2oc(-c3c(C)[nH]c4c(-c5ccccc5)c(C(F)(F)F)nn4c3=O)nc12` [Compound C1155, 4-methoxy-2-(5-methyl-7-oxo-3-phenyl-2-(trifluoromethyl)-4,7-dihydropyrazolo[1,5-a]pyrimidin-6-yl)benzo[d]oxazole-6-carboxylic acid], the pIC50 was 4.00 to 4.70 in test [1] and above 4.70 in test [2].

Take `Cc1[nH]c2c(-c3ccccc3)c(C(F)(F)F)nn2c(=O)c1-c1nnc(C2=NCCCN2)o1` [Compound D1072, 5-methyl-3-phenyl-6-(5-(1,4,5,6-tetrahydropyrimidin-2-yl)-1,3,4-oxadiazol-2-yl)-2-(trifluoromethyl)pyrazolo[1,5-a]pyrimidin-7(4H)-one]: the pIC50 in test [1] is below 4.00; in test [2], above 4.70.

On to `COc1cccc2oc(-c3c(C(=O)NCC(C)(C)O)[nH]c4c(-c5ccccc5)c(C(F)(F)F)nn4c3=O)nc12` [Compound C1219, N-(2-hydroxy-2-methylpropyl)-6-(4-methoxybenzo[d]oxazol-2-yl)-7-oxo-3-phenyl-2-(trifluoromethyl)-4,7-dihydropyrazolo[1,5-a]pyrimidine-5-carboxamide], for which the negative-log IC50 (pIC50) in test [1] is below 4.00; in test [2], above 4.70.

On to `Cc1[nH]c2c(-c3ccccc3)c(C(F)(F)F)nn2c(=O)c1C(=O)NS(=O)(=O)c1cccc(C#N)c1` [Compound A1128, N-((3-cyanophenyl)sulfonyl)-5-methyl-7-oxo-3-phenyl-2-(trifluoromethyl)-4,7-dihydropyrazolo[1,5-a]pyrimidine-6-carboxamide], for which the negative-log IC50 (pIC50) in test [1] is below 4.00; in test [2] it was above 4.70.

(Values after patent publication US10738056B2 (Aduro BioTech, Inc., priority 2017, dated 2020).)
